Legend:
[1] = target: human PDE9A (Homo sapiens (Human), UniProt O76083); settings: concentrations of up to 100 micromolar (μM); cited from earlier work
[2] = target: Murine PDE9A (Mus musculus (Mouse), UniProt O70628); settings: cited from earlier work
[3] = target: human PDE9A2 (Homo sapiens (Human), UniProt O76083); test: PDE9A2 enzymatic activity assay (scintillation proximity assay); assay type: biochemical
Description: As enzyme source, lysate (PBS with 1% Triton X-100 supplemented with protease inhibitors, cell debris removed by centrifugation at 13.000 rpm for 30 min) of SF 9 cell expressing the human PDE9A2 was used. The total protein amount included in the assay varied upon infection and production efficacy of the SF9 cells and lay in the range of 0.1-100 ng.
The assays were run in 384-well format. The test reagents as well as the enzyme and the substrate were diluted in assay buffer. The assay buffer contained 50 mM Tris, 8.3 mM MgCl2, 1.7 mM EGTA, 0.1% BSA, 0.05% Tween 20; the pH of assay buffer was adjusted to 7.5.
The activity of the positive control (minus the negative control=background) is set to 100% and activity in the presence of test compound is expressed relative to these 100%.
(§1) IC50 can be calculated with GraphPadPrism or other suited software setting the positive control as 100 and the negative control as 0. For calculation of IC50 dilutions of the test compounds (substrates) are to be selected and tested following the aforementioned protocol.

[4] = target: PDE1C (Homo sapiens (Human), UniProt Q14123); test: PDE1C assay (SPA, analogue to the PDE9A2 assay); assay type: biochemical; settings: ratio PDE1C IC50 / PDE9A2 IC50
From the text: The reaction can be stopped by applying the same inhibitor than the one that is outlined above (1-(2-Chlorophenyl)-6-[(2R)-3,3,3-trifluoro-2-methyl-propyl]-1,5-dihydro-4H-pyrazolo[3,4-d]pyrimidine-4-one).
as §1

Sequence of human PDE9A (O76083 whole entry): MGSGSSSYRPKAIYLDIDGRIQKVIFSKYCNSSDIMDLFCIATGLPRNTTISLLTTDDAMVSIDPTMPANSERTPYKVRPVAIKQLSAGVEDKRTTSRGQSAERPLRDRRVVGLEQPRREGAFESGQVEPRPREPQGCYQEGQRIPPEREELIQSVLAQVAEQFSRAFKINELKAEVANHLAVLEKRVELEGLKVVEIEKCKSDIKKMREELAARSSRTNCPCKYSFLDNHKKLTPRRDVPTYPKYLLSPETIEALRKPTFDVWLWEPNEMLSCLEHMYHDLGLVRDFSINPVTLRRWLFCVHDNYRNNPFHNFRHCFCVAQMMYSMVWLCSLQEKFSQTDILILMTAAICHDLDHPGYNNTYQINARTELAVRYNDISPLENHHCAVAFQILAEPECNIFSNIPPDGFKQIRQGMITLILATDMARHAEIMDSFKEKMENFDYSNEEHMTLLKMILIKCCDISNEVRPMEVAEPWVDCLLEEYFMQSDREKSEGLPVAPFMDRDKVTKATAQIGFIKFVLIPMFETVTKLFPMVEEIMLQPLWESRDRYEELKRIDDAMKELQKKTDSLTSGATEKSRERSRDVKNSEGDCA
Sequence of human PDE9A2 (O76083 other isoform, or with tags, fused parts or gaps): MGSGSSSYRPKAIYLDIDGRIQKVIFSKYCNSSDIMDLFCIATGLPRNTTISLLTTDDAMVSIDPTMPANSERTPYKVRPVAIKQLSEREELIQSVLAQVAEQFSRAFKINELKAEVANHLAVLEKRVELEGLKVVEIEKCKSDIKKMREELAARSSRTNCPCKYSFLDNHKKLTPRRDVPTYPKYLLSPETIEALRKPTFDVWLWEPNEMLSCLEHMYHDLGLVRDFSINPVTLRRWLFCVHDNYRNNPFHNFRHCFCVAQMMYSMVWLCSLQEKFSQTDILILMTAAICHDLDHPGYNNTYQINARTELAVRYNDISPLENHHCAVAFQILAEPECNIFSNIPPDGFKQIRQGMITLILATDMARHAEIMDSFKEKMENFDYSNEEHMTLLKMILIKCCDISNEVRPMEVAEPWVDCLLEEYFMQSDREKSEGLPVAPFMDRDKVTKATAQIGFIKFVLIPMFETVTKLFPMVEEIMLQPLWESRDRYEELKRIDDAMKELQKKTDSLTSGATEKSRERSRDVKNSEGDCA
Sequence of Murine PDE9A (O70628 whole entry): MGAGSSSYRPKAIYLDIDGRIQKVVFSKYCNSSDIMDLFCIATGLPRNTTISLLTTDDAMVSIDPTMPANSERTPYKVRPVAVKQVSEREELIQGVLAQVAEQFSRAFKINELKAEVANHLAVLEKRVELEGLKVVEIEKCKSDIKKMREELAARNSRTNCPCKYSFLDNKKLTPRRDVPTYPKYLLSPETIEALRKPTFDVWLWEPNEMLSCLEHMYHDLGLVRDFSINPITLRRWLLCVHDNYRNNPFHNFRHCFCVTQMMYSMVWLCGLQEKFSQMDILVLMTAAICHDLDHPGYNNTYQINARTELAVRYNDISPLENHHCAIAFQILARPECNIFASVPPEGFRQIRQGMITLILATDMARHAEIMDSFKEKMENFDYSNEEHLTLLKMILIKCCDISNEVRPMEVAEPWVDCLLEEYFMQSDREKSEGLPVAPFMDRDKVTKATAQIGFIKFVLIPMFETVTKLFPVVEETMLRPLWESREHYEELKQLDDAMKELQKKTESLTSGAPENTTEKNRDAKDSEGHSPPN

Row | Compound | inhibition on the isolated enzyme [1] | further results
1 | COc1ccc(C2CNC(=O)C2)cc1OC1CCCC1 (stereo not shown) [rolipram] | no inhibition | –
2 | CC(=O)Nc1ccc(-c2c[nH]c(=O)cn2)cc1 [SKF94120] | no inhibition | –
3 | CCCOc1ccccc1-c1nc2nn[nH]c2c(=O)[nH]1 [zaprinast] | – | IC50 ([2]; murine PDE9A): 29 µM
4 | CCOC(=O)C1=C[C@]2(CC)CCCN3CCc4c(n1c1ccccc41)[C@@H]32 [vinpocetine] | no inhibition | –
5 | CC(C)Cn1c(=O)n(C)c(=O)c2[nH]cnc21 [IBMX] | no inhibition | inhibition of murine PDE9A ([2]; concentrations below 200 micromolar): not inhibited
6 | CC(C)(C)c1cccc(-c2ccccc2Cc2nc3c(cnn3C3CCOCC3)c(=O)[nH]2)n1 [Example 259] | – | inhibition at 10 µM ([3]; PDE9A2, 10 microM test compound, read-out: I % (at 10 microM): inhibition at 10 micromolar concentration): 102%; IC50 ([3]; human PDE9A2, cGMP 20 nanomolar, read-out: IC50 values for PDE9A2 inhibition): 0.003 µM; S: selectivity values [= (IC50 for PDE1C inhibition)/(IC50 for PDE9A2 inhibition)] [4]: 942
7 | OCCN(CCO)c1nc(N2CCCCC2)c2nc(N(CCO)CCO)nc(N3CCCCC3)c2n1 [dipyridamole] | no inhibition | –
